The target in test [1] is T1, human M3 receptors (Homo sapiens, UniProt P20309).
T1 construct: purchased Receptor Biology; host or cells: CHO-K1 cells transfected with the human receptor (membranes)
Description: Binding test to cloned human M3 muscarinic receptor ([3H]-NMS displacement, CHO-K1 membranes). The procedure:
(§1) Membranes from CHO—K1 cells transfected with human M2 or M3 receptors (Receptor Biology) were used. The summarised experimental procedure for both receptors was the following: membranes (15–20 μg) were incubated with [^3H]-NMS (0.3–0.5 nM) for 60 min at 25° C., in presence or absence of the antagonists. Incubation was carried out in 96 wells polystyrene microplates in a total incubation volume of 0.2 mL of PBS pH 7.4. Non specific binding was determined in parallel assays in presence of atropine (5 μM). Samples were filtered through type GF/C glass fibre, preincubated with PEI 0.3%. Filters were washed 3–4 times with 50 mM Tris-HCl, 0.9% NaCl, pH 7.4 at 4° C., and dried at 50° C. for 45 min. Filter bound radioactivity was quantified by liquid scintillation counting.
(§2) For the calculation of the inhibition constant (Ki), displacement curves were analysed by non-linear regression (GraphPad Prism). Dissociation constant (KD) of [^3H]-NMS for each receptor was obtained through the saturation curves obtained in the same conditions as the experiments carried out with the antagonists.

Test [2] has as its target T2, human M2 receptors (Homo sapiens, UniProt P08172).
T2 construct: purchased Receptor Biology; host or cells: CHO-K1 cells transfected with the human receptor (membranes)
T2 sequence (P08172 1-466): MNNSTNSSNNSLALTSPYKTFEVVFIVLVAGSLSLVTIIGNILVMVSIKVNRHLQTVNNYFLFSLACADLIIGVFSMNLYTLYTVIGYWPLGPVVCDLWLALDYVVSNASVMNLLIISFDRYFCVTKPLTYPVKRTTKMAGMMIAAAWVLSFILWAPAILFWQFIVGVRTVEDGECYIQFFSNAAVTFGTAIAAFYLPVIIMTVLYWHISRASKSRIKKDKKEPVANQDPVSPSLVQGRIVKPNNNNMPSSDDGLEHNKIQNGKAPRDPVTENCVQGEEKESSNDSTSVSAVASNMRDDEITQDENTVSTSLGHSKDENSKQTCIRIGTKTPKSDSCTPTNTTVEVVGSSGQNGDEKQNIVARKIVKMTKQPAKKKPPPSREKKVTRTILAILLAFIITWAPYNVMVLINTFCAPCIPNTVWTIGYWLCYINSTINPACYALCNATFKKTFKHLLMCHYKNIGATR
The test can be described thus: Binding test to cloned human M2 muscarinic receptor ([3H]-NMS displacement, CHO-K1 membranes), reported as M2/M3 ratio. The note with it: value greater than 1 indicates selectivity for the M3 receptor. The procedure: as §1, §2

Setting [3] is: membranes of CHO-K1 cells transfected with human M3, [3H]-NMS, mean of two independent experiments in duplicate, read-out: M3 (human M3 antagonist activity, binding affinity constant Ki).

These results are taken from US7115629B2, “Carbamates derived from arylalkylamines” (Laboratorios S.A.L.V.A.T., S.A., priority 2000, dated 2006).

Where a name gives a salt, the structure may show the parent alone. Read-outs that look alike come from different tables or passages of the source.

T1 sequence (P20309 whole entry): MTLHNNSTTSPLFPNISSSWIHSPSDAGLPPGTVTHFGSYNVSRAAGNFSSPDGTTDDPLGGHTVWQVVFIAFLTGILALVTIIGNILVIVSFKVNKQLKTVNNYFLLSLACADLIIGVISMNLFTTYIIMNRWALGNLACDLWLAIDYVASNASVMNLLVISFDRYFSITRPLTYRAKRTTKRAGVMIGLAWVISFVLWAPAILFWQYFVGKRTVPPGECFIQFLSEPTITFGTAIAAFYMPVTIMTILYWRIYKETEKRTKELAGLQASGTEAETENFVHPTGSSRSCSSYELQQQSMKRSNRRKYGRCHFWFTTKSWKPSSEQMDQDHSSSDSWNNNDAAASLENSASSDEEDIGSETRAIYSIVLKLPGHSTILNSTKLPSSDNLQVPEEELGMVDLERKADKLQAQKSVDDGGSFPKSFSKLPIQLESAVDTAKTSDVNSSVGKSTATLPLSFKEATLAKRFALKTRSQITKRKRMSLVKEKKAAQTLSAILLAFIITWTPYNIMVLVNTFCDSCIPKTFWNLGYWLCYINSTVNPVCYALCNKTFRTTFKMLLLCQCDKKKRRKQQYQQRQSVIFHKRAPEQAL

For orientation: Ki means a measure of affinity in units of concentration, obtained from inhibition or displacement. Take `O=C(OC1CN2CCC1CC2)N(Cc1ccc(C(F)(F)F)cc1)c1ccccc1` (stereo not drawn) [Example 39]: the Ki in test [1] (setting [3]) came out at 0.32 nM. In addition, the “M2/M3 (ratio between M2 and M3 receptor affinities)” value in test [2] is reported as 84.
With `C=C(C)C1CCC(CN(C(=O)OC2CN3CCC2CC3)c2cccc(C)c2)CC1` (stereo not drawn) [Example 59], the Ki in test [1] (setting [3]) was 0.77 nM. In addition, in test [2], the “M2/M3 (ratio between M2 and M3 receptor affinities)” value amounted to 90.
The matching figures for `O=C(OC1CN2CCC1CC2)N(Cc1ccccc1)c1ccccc1O` (stereo not drawn) [Example 14]: 0.31 nM and 21.
For the compound `N#Cc1ccc(CN(C(=O)OC2CN3CCC2CC3)c2ccccc2)cc1` (stereo not drawn) [Example 43], the inhibition constant Ki in test [1] (setting [3]) came to 0.9 nM. Besides, the “M2/M3 (ratio between M2 and M3 receptor affinities)” value in test [2] is given as 31.
For the compound `O=C(OC1CN2CCC1CC2)N(Cc1cc(F)ccc1F)c1ccccc1Cl` (stereo not drawn) [Example 24], the Ki in test [1] (setting [3]) was 0.48 nM. Further, the “M2/M3 (ratio between M2 and M3 receptor affinities)” value in test [2] is reported as 33.
For the compound `O=C(OC1CN2CCC1CC2)N(CC1CC2CCC1C2)c1cccc(F)c1` (stereo not drawn) [Example 62], the Ki in test [1] (setting [3]) is 0.22 nM. Besides, the “M2/M3 (ratio between M2 and M3 receptor affinities)” value in test [2] was found to be 115.
For `C[N+]12CCC(CC1)C(OC(=O)N(CC1CCCCC1)c1ccccc1F)C2.[I-]` (stereo not drawn) [Example 69], in test [1] (setting [3]), the Ki was determined as 14.1 nM. Moreover, the “M2/M3 (ratio between M2 and M3 receptor affinities)” value in test [2] is reported as 8.
Take `Cc1cccc(N(CC2CCCC2)C(=O)OC2CN3CCC2CC3)c1` (stereo not drawn) [Example 56]: the Ki in test [1] (setting [3]) came out at 0.75 nM. In addition, the “M2/M3 (ratio between M2 and M3 receptor affinities)” value in test [2] is on record as 37.
With `Cc1ccc(F)c(N(Cc2ccc(Cl)cc2)C(=O)OC2CN3CCC2CC3)c1` (stereo not drawn) [Example 19], in test [1] (setting [3]), the Ki turned out to be 1.2 nM. For the same compound, the “M2/M3 (ratio between M2 and M3 receptor affinities)” value in test [2] was 23.
For the compound `O=C(OC1CN2CCC1CC2)N(Cc1ccccc1Br)c1ccccc1` (stereo not drawn) [Example 16], the Ki in test [1] (setting [3]) stood at 4.23 nM. For the same compound, the “M2/M3 (ratio between M2 and M3 receptor affinities)” value in test [2] came out at 13.
For the compound `O=C(OC1CN2CCC1CC2)N(Cc1ccccc1)c1ccccc1` (stereo not drawn) [Example 1, 3-quinuclidyl N-benzyl-N-phenylcarbamate, hydrochloride], the affinity in test [1], expressed as Ki, was 0.45 nM. Besides, in test [2], the “M2/M3 (ratio between M2 and M3 receptor affinities)” value came to 10.
Take `O=C(OC1CN2CCC1CC2)N(Cc1ccc(F)c(F)c1)c1ccccc1` (stereo not drawn) [Example 26]: in test [1] (setting [3]), the Ki was found to be 0.1 nM. Further, the “M2/M3 (ratio between M2 and M3 receptor affinities)” value in test [2] is 50.
`Cc1cccc(N(Cc2cc(F)cc(F)c2F)C(=O)OC2CN3CCC2CC3)c1` (stereo not drawn) [Example 34]: the Ki in test [1] (setting [3]) is 0.3 nM. The “M2/M3 (ratio between M2 and M3 receptor affinities)” value in test [2] worked out at 90.
Regarding `O=C(OC1CN2CCC1CC2)N(Cc1ccccc1)c1ccc2c(c1)CCC2` (stereo not drawn) [Example 12], the Ki in test [1] (setting [3]) stood at 30.7 nM. Further, the “M2/M3 (ratio between M2 and M3 receptor affinities)” value in test [2] is reported as 6.
Consider `O=C(OC1CN2CCC1CC2)N(Cc1ccccc1)c1cccc(Br)c1` (stereo not drawn) [Example 7], for which, in test [1] (setting [3]), the Ki turned out to be 2.05 nM. For the same compound, the “M2/M3 (ratio between M2 and M3 receptor affinities)” value in test [2] was found to be 19.
As to `Cc1cccc(N(Cc2ccccc2)C(=O)OC2CN3CCC2CC3)c1` (stereo not drawn) [Example 10], in test [1] (setting [3]), the Ki stood at 0.14 nM. Moreover, the “M2/M3 (ratio between M2 and M3 receptor affinities)” value in test [2] is 44.
`O=C(OC1CN2CCC1CC2)N(Cc1ccc2c(c1)OCO2)c1ccccc1` (stereo not drawn) [Example 52]: the Ki in test [1] (setting [3]) amounted to 1.2 nM. The “M2/M3 (ratio between M2 and M3 receptor affinities)” value in test [2] worked out at 25.
Regarding `Cc1cccc(N(Cc2ccccc2C)C(=O)OC2CN3CCC2CC3)c1` (stereo not drawn) [Example 38], in test [1] (setting [3]), the Ki is 0.23 nM. Also, the “M2/M3 (ratio between M2 and M3 receptor affinities)” value in test [2] was determined as 40.
In test [1], `O=C(O[C@H]1CN2CCC1CC2)N(Cc1ccccc1)c1ccccc1` [Example 2, (R)-3-quinuclidyl N-benzyl-N-phenylcarbamate, hydrochloride] came in with a Ki of 0.31 nM. Besides, the “M2/M3 (ratio between M2 and M3 receptor affinities)” value in test [2] was 5.
On to `O=C(OC1CN2CCC1CC2)N(Cc1ccccc1)c1ccc(F)c(F)c1` (stereo not drawn) [Example 9], for which the Ki in test [1] (setting [3]) stood at 19.6 nM. For the same compound, the “M2/M3 (ratio between M2 and M3 receptor affinities)” value in test [2] was found to be 9.
Take `O=C(OC1CN2CCC1CC2)N(CC1=CCCCC1)c1ccccc1F` (stereo not drawn) [Example 60]: the Ki in test [1] (setting [3]) turned out to be 0.02 nM. Besides, the “M2/M3 (ratio between M2 and M3 receptor affinities)” value in test [2] is recorded as 48.
The like results for `COc1cc(CN(C(=O)OC2CN3CCC2CC3)c2cccc(Cl)c2)ccc1OCc1ccccc1` (stereo not drawn) [Example 51] were, in that order, 51.9 nM and 3.
As to `Cc1ccc(F)c(N(Cc2ccccc2F)C(=O)OC2CN3CCC2CC3)c1` (stereo not drawn) [Example 15], the Ki in test [1] (setting [3]) came to 0.53 nM. In test [2], the “M2/M3 (ratio between M2 and M3 receptor affinities)” value is given as 21.
Take `O=C(OC1CN2CCC1CC2)N(Cc1ccc(F)c(Cl)c1)c1ccccc1` (stereo not drawn) [Example 28]: the Ki in test [1] (setting [3]) was 1.5 nM. In test [2], the “M2/M3 (ratio between M2 and M3 receptor affinities)” value is on record as 35.
The like results for `O=C(OC1CN2CCC1CC2)N(Cc1ccccc1)c1cccc(Cl)c1` (stereo not drawn) [Example 6] were, in that order, 0.21 nM and 87.
The like results for `Cc1cccc(N(Cc2cc(F)c(F)cc2F)C(=O)OC2CN3CCC2CC3)c1` (stereo not drawn) [Example 35] were, in that order, 0.031 nM and 839.
Regarding `Cc1cccc(N(Cc2ccc3c(c2)OCCO3)C(=O)OC2CN3CCC2CC3)c1` (stereo not drawn) [Example 53], the Ki in test [1] (setting [3]) amounted to 1.25 nM. Also, in test [2], the “M2/M3 (ratio between M2 and M3 receptor affinities)” value is 26.
The matching figures for `O=C(OC1CN2CCC1CC2)N(Cc1ccccc1O)c1ccccc1F` (stereo not drawn) [Example 45]: 0.18 nM and 37.
As to `O=C(OC1CN2CCC1CC2)N(Cc1ccc(Cl)c(F)c1)c1ccccc1F` (stereo not drawn) [Example 27], in test [1] (setting [3]), the Ki was found to be 0.37 nM. Moreover, the “M2/M3 (ratio between M2 and M3 receptor affinities)” value in test [2] worked out at 92.
With `COc1ccc(CN(C(=O)OC2CN3CCC2CC3)c2cccc(Cl)c2)c(F)c1` (stereo not drawn) [Example 23], the Ki in test [1] (setting [3]) turned out to be 0.73 nM. For the same compound, the “M2/M3 (ratio between M2 and M3 receptor affinities)” value in test [2] is 118.
Turning to `O=C(OC1CN2CCC1CC2)N(Cc1cccc(OCc2ccccc2)c1)c1cccc(Cl)c1` (stereo not drawn) [Example 48], in test [1] (setting [3]), the Ki worked out at 0.43 nM. Also, the “M2/M3 (ratio between M2 and M3 receptor affinities)” value in test [2] turned out to be 24.
Turning to `O=C(OC1CN2CCC1CC2)N(Cc1ccc(F)c(F)c1F)c1cccc(Cl)c1` (stereo not drawn) [Example 33], the Ki in test [1] (setting [3]) amounted to 0.4 nM. The “M2/M3 (ratio between M2 and M3 receptor affinities)” value in test [2] came to 142.
Take `O=C(OC1CN2CCC1CC2)N(Cc1cccc(F)c1)c1cccc(F)c1` (stereo not drawn) [Example 17]: the Ki in test [1] (setting [3]) was determined as 0.054 nM. Also, the “M2/M3 (ratio between M2 and M3 receptor affinities)” value in test [2] is 196.
For the compound `O=C(OC1CN2CCC1CC2)N(CC1CC1)c1ccccc1` (stereo not drawn) [Example 54], the Ki in test [1] (setting [3]) amounted to 0.6 nM. Also, the “M2/M3 (ratio between M2 and M3 receptor affinities)” value in test [2] came to 32.
`O=C(OC1CN2CCC1CC2)N(Cc1ccccc1)c1ccccc1F` (stereo not drawn) [Example 5]: in test [1] (setting [3]), the Ki came out at 0.047 nM. Besides, the “M2/M3 (ratio between M2 and M3 receptor affinities)” value in test [2] is reported as 47.
For `C[N+]12CCC(CC1)C(OC(=O)N(Cc1ccccc1)c1ccccc1F)C2.[I-]` (stereo not drawn) [Example 68], the Ki in test [1] (setting [3]) was 9.9 nM. For the same compound, in test [2], the “M2/M3 (ratio between M2 and M3 receptor affinities)” value is reported as 5.
The like results for `COc1ccc(CN(C(=O)OC2CN3CCC2CC3)c2ccccc2F)cc1F` (stereo not drawn) [Example 32] were, in that order, 3.3 nM and 19.
As to `Cc1cccc(N(Cc2cccc(O)c2)C(=O)OC2CN3CCC2CC3)c1` (stereo not drawn) [Example 46], the Ki in test [1] (setting [3]) came out at 0.15 nM. The “M2/M3 (ratio between M2 and M3 receptor affinities)” value in test [2] is reported as 33.
Turning to `Cc1cccc(N(Cc2ccc(F)cc2F)C(=O)OC2CN3CCC2CC3)c1` (stereo not drawn) [Example 22], the Ki in test [1] (setting [3]) was 0.51 nM. Moreover, the “M2/M3 (ratio between M2 and M3 receptor affinities)” value in test [2] amounted to 21.
